Measured values as given in patent US20230365546A1, “5-SUBSTITUTED INDOLE 3-AMIDE DERIVATIVES, PREPARATION METHOD AND USE THEREOF” (ORIGIANT PHARMACEUTICAL CO., LTD, priority 2020, published 2023).

Legend:
Experiment in all cases: Kinase Profiler 10 μM panel
NEK9(h) = NEK9(h) (Homo sapiens (Human), UniProt Q8TD19)
Method: (§1) In vitro kinase assays were conducted using Kinase Profiler services provided by Eurofins. The experimental method was as follows: the small molecule compound to be tested (0.001-10 μM), the protein kinase to be tested were incubated with a buffer containing substrate, 10 mM magnesium acetate, and [γ-^33P-ATP], the reaction was started by adding Mg\TPmix, after incubation for a period of time at room temperature, a 3% phosphate solution was added to the buffer to stop the reaction. Subsequently, 10 μL of the reaction mixture was quantitatively pipetted onto P30 filter paper, which was washed three times with 75 mM phosphate solution and then once with methanol. The P30 filter paper was air-dried and scintillation fluid was added for scintillation counting.

Fms(h) = Fms(h) (Homo sapiens (Human), UniProt P07333)
Method: as §1

IKKa(h) = IKKa(h) (Homo sapiens (Human), UniProt O15111)
Method: as §1

CaMKIβ(h) = CaMKIβ(h) (Homo sapiens (Human), UniProt Q6P2M8)
Method: as §1

CDK3/cyclinE(h) = CDK3/cyclinE(h) (Homo sapiens (Human), UniProt Q00526)
Method: as §1

TBK1(h) = TBK1(h) (Homo sapiens (Human), UniProt Q9UHD2)
DCAMKL2(h) = DCAMKL2(h) (Homo sapiens (Human), UniProt Q8N568)
Method: as §1

Met(D1246N)(h) = Met(D1246N)(h) (Homo sapiens (Human), UniProt P08581, D1228N)
Met(D1246N)(h), sequence (P08581 956-1390 D1228N limits assumed): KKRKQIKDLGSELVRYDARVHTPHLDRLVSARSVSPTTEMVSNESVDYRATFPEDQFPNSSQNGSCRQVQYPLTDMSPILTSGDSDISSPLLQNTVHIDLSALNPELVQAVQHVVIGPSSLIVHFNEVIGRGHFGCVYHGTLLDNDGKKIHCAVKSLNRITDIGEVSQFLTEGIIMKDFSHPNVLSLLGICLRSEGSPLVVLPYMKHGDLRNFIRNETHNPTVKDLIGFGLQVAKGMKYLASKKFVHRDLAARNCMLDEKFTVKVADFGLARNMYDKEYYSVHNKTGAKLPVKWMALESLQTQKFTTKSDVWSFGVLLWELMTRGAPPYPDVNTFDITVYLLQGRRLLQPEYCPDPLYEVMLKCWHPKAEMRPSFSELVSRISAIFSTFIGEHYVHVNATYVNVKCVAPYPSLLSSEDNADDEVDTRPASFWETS
Method: as §1

MAPKAP-K3(h) = MAPKAP-K3(h) (Homo sapiens (Human), UniProt Q16644)
Method: as §1

PKCγ(h) = PKCγ(h) (Homo sapiens (Human), UniProt P05129)
Method: as §1

DRAK1(h) = DRAK1(h) (Homo sapiens (Human), UniProt Q9UEE5)
Method: as §1

TAF1L(h) = TAF1L(h) (Homo sapiens (Human), UniProt Q8IZX4)
TAF1L(h), sequence (Q8IZX4 whole entry): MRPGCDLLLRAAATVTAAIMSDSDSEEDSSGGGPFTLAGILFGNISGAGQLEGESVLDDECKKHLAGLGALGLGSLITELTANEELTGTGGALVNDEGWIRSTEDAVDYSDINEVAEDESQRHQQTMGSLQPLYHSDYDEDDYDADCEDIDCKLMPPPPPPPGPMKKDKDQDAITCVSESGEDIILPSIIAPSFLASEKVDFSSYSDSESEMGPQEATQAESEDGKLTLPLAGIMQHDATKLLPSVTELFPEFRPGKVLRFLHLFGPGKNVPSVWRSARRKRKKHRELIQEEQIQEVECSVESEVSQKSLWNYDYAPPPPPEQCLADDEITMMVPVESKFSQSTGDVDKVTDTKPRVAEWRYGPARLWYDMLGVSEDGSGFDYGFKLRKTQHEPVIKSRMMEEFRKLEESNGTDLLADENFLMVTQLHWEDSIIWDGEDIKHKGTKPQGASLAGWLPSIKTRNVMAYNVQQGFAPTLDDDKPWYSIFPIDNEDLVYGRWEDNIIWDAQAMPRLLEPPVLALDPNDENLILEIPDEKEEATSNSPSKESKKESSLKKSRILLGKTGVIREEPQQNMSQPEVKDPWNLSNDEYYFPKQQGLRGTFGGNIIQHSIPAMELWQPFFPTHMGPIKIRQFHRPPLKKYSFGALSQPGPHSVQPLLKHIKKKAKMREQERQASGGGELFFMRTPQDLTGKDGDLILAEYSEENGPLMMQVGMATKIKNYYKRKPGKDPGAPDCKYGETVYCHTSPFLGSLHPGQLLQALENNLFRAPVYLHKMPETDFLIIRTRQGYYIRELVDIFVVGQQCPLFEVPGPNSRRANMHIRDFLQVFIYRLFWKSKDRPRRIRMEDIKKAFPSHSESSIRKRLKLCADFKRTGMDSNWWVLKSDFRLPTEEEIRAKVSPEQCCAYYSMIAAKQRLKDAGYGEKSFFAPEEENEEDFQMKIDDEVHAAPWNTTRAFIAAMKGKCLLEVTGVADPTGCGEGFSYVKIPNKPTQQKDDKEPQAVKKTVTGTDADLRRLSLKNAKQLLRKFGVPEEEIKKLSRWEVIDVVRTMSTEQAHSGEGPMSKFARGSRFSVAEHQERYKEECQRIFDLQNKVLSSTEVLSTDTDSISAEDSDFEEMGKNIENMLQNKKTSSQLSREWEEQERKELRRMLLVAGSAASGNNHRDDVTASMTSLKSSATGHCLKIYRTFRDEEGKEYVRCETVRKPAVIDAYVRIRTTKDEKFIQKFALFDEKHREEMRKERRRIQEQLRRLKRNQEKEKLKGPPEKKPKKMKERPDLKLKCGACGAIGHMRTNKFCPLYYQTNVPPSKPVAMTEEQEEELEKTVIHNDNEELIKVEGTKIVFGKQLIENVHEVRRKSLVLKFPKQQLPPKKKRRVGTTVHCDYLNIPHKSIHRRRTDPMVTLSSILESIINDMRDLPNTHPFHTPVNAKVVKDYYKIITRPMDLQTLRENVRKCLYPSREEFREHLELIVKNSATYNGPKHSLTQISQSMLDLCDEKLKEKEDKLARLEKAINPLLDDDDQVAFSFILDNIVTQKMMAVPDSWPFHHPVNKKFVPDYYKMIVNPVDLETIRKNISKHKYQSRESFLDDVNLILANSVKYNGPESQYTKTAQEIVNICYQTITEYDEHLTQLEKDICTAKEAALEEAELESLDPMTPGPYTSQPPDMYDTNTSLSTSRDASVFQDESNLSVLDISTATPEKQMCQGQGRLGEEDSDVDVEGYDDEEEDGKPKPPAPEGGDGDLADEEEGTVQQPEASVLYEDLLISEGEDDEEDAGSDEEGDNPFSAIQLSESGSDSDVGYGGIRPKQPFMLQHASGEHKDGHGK
Method: as §1

Aurora-C(h) = Aurora-C(h) (Homo sapiens (Human), UniProt Q9UQB9)
Method: as §1

MINK(h) = MINK(h) (Homo sapiens (Human), UniProt Q8N4C8)
Method: as §1

FGFR2(N549H)(h) = FGFR2(N549H)(h) (Homo sapiens (Human), UniProt P21802, N549H)
Method: as §1

FGFR3(h) = FGFR3(h) (Homo sapiens (Human), UniProt P22607)
Method: as §1

Ret (V804L)(h) = Ret (V804L)(h) (Homo sapiens (Human), UniProt P07949, V804L)
Ret (V804L)(h), sequence (P07949 29-1114 V804L): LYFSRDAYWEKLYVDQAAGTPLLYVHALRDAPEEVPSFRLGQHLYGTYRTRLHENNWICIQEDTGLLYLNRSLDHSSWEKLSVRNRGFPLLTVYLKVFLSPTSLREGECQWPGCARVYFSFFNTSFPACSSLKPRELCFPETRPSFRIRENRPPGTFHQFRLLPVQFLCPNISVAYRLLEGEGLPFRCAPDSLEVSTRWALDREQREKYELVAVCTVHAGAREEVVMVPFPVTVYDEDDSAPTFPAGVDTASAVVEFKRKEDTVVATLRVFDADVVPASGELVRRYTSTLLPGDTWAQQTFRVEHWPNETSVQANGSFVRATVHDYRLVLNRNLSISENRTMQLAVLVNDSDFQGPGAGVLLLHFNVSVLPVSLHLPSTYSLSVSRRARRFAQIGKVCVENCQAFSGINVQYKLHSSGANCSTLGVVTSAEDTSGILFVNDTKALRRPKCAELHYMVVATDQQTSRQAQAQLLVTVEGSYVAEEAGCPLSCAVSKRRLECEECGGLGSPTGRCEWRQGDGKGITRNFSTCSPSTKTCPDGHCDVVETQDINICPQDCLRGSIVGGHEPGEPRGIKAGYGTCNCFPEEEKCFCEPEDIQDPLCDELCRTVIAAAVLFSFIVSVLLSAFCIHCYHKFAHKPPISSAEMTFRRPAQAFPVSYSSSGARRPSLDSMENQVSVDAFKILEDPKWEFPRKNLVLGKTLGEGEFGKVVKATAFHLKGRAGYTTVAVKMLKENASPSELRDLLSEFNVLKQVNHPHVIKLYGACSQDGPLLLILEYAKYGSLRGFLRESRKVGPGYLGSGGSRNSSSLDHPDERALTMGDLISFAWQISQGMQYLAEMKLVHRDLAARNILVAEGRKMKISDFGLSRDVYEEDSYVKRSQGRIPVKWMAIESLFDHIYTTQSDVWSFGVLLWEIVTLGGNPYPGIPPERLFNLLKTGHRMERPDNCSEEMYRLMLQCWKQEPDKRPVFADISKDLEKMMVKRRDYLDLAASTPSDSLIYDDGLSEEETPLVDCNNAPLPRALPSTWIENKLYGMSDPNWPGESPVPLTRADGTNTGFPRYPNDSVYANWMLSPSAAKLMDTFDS
Method: as §1

Wee1B(h) = Wee1B(h) (Homo sapiens (Human), UniProt P0C1S8)
Method: as §1

CHK2(I157T)(h) = CHK2(I157T)(h) (Homo sapiens (Human), UniProt O96017, I157T)
Method: as §1

GCN2(h) = GCN2(h) (Homo sapiens (Human), UniProt Q9P2K8)
Method: as §1

CK1ϵ(h) = CK1ϵ(h) (Homo sapiens (Human), UniProt P49674)
Method: as §1

Met(D1246H)(h) = Met(D1246H)(h) (Homo sapiens (Human), UniProt P08581, D1228H)
Met(D1246H)(h), sequence (P08581 956-1390 D1228H limits assumed): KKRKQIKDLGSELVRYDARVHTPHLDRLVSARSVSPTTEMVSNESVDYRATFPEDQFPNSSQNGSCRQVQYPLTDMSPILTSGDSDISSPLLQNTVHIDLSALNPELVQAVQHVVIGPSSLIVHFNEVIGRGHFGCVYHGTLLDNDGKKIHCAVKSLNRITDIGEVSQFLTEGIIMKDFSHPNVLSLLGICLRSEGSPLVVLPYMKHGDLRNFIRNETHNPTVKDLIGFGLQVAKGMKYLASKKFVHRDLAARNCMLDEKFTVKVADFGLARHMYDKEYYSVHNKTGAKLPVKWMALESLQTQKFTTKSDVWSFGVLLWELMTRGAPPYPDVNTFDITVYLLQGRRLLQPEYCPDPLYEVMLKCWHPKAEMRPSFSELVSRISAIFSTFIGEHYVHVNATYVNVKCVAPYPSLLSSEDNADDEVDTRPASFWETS
Method: as §1

Ret(V804M)(h) = Ret(V804M)(h) (Homo sapiens (Human), UniProt P07949, V804M)
Ret(V804M)(h), sequence (P07949 29-1114 V804M): as the sequence (P07949 29-1114 V804L) above, with L776M counted along it
Method: as §1

Abl(m) = Abl(m) (Mus musculus (Mouse), UniProt P00520)
Method: as §1

Hck(h) activated = Hck(h) activated (Homo sapiens (Human), UniProt P08631)
Method: as §1

PhKγ1(h) = PhKγ1(h) (Homo sapiens (Human), UniProt Q16816)
Method: as §1

MKK6(h) = MKK6(h) (Homo sapiens (Human), UniProt P52564)
Method: as §1

PDGFRα(D842V)(h) = PDGFRα(D842V)(h) (Homo sapiens (Human), UniProt P16234, D842V)
Method: as §1

NEK11(h) = NEK11(h) (Homo sapiens (Human), UniProt Q8NG66)
NEK11(h), sequence (Q8NG66 whole entry): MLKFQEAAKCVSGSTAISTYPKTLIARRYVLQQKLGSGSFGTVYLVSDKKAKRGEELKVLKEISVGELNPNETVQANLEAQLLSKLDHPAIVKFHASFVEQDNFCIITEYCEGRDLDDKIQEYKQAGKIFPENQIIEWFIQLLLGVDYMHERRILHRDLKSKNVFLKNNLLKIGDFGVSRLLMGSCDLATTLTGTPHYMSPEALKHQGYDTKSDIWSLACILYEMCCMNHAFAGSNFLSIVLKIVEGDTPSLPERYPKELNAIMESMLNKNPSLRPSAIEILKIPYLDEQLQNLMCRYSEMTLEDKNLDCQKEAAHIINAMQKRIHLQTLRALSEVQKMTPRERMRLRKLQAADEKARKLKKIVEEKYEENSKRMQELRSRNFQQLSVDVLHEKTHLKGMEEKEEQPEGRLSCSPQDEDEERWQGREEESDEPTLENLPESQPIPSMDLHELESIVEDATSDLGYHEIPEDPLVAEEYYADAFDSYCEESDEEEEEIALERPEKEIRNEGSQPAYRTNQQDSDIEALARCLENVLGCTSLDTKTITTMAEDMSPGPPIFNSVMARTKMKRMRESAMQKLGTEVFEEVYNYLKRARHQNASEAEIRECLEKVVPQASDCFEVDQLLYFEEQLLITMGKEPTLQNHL
Method: as §1

PKA(h) = PKA(h) (Homo sapiens (Human), UniProt P17612)
Method: as §1

JAK2(h) = JAK2(h) (Homo sapiens (Human), UniProt O60674)
Method: as §1

MAK(h) = MAK(h) (Homo sapiens (Human), UniProt P20794)
Method: as §1

Lyn(m) = Lyn(m) (Mus musculus (Mouse), UniProt P25911)
Lyn(m), sequence (P25911 whole entry): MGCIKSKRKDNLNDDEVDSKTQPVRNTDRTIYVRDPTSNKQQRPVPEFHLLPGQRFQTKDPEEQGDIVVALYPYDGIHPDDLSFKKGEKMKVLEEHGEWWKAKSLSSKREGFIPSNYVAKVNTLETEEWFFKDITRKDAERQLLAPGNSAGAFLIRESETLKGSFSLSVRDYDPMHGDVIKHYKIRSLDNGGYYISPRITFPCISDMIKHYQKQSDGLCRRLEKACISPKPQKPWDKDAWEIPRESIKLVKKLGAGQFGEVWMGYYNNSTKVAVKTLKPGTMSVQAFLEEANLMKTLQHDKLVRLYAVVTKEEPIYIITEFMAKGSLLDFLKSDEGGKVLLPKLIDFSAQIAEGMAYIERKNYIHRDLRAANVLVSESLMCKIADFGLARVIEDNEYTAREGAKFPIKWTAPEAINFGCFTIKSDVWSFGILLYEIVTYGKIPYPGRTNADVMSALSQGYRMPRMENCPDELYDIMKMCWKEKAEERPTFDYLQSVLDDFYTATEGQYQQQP
Method: as §1

In the case of `C[C@H](NC(=O)c1c[nH]c2ccc(-c3ccc4nc(NC(=O)C5CC5)sc4c3)cc12)c1cccc(F)c1` [Compound 34, (S)-5-(2-(cyclopropanecarboxamido)benzo[d]thiazol-6-yl)-N-(1-(3-fluorophenyl)ethyl)-1H-indole-3-carboxamide], the Inhibition ratio (NEK9(h)) was 13%, the Inhibition ratio (Fms(h)) was 21% and the Inhibition ratio (IKKa(h); IKKa(h)) was 5%. The Inhibition ratio (CaMKIβ(h)) was 11%, the Inhibition ratio (CDK3/cyclinE(h)) was −13% and the Inhibition ratio (TBK1(h)) was 53%. It also gave an Inhibition ratio (DCAMKL2(h)) of 6%, an Inhibition ratio (Met(D1246N)(h)) of 86% and an Inhibition ratio (MAPKAP-K3(h)) of −1%. The Inhibition ratio (PKCγ(h)) was 7%, the Inhibition ratio (DRAK1(h)) was 38% and the Inhibition ratio (TAF1L(h)) was 58%. The Inhibition ratio (Aurora-C(h)) was 26%, the Inhibition ratio (MINK(h)) was 93% and the Inhibition ratio (FGFR2(N549H)(h)) was 86%. For the same compound, the Inhibition ratio (FGFR3(h)) was 35%, the Inhibition ratio (Ret (V804L)(h)) was 99% and the Inhibition ratio (Wee1B(h)) was −2%. The Inhibition ratio (CHK2(I157T)(h)) was 24%, the Inhibition ratio (GCN2(h)) was 14% and the Inhibition ratio (CK1ϵ(h)) was 35%. It also gave an Inhibition ratio (Met(D1246H)(h)) of 95%, an Inhibition ratio (Ret(V804M)(h)) of 98% and an Inhibition ratio (Abl(m)) of 99%. The Inhibition ratio (Hck(h) activated) was 26%, the Inhibition ratio (PhKγ1(h)) was 16% and the Inhibition ratio (MKK6(h)) was 7%. It also gave an Inhibition ratio (PDGFRα(D842V)(h)) of 56%, an Inhibition ratio (NEK11(h)) of 35% and an Inhibition ratio (PKA(h)) of −12%. For the same compound, the Inhibition ratio (JAK2(h)) was 11%, the Inhibition ratio (MAK(h)) was 2% and the Inhibition ratio (Lyn(m)) was 72%.

`C[C@H](NC(=O)c1cn(C)c2ccc(-c3ccn4nc(NC(=O)C5CC5)nc4c3)cc12)c1cccc(F)c1` [Compound 94, (S)-5-(2-(cyclopropanecarboxamido)-[1,2,4]triazolo[1,5-a]pyridin-7-yl)-N-(1-(3-fluorophenyl)ethyl)-1-methyl-1H-indole-3-carboxamide] gave an Inhibition ratio/% (NEK9(h)) of −10%, an Inhibition ratio/% (Fms(h)) of 22% and an Inhibition ratio/% (IKKa(h); IKKα(h)) of 29%. The Inhibition ratio/% (CaMKIβ(h)) was 31%, the Inhibition ratio/% (CDK3/cyclinE(h)) was 65% and the Inhibition ratio/% (TBK1(h)) was 13%. It also gave an Inhibition ratio/% (DCAMKL2(h)) of 74%, an Inhibition ratio/% (Met(D1246N)(h)) of −11% and an Inhibition ratio/% (MAPKAP-K3(h)) of −12%. The Inhibition ratio/% (PKCγ(h)) was 47%, the Inhibition ratio/% (DRAK1(h)) was 30% and the Inhibition ratio/% (TAF1L(h)) was 48%. For the same compound, the Inhibition ratio/% (Aurora-C(h)) was 15%, the Inhibition ratio/% (MINK(h)) was 53% and the Inhibition ratio/% (FGFR2(N549H)(h)) was 12%. The Inhibition ratio/% (FGFR3(h)) was 40%, the Inhibition ratio/% (Ret (V804L)(h)) was 50% and the Inhibition ratio/% (Wee1B(h)) was −2%. The Inhibition ratio/% (CHK2(I157T)(h)) was 61%, the Inhibition ratio/% (GCN2(h)) was 23% and the Inhibition ratio/% (CK1ϵ(h)) was 59%. It also gave an Inhibition ratio/% (Met(D1246H)(h)) of 34%, an Inhibition ratio/% (Ret(V804M)(h)) of 45% and an Inhibition ratio/% (Abl(m)) of 61%. For the same compound, the Inhibition ratio/% (Hck(h) activated) was −12%, the Inhibition ratio/% (PhKγ1(h)) was −12% and the Inhibition ratio/% (MKK6(h)) was 30%. It also gave an Inhibition ratio/% (PDGFRα(D842V)(h)) of 37%, an Inhibition ratio/% (NEK11(h)) of 44% and an Inhibition ratio/% (PKA(h)) of 55%. The Inhibition ratio/% (JAK2(h)) was 45%, the Inhibition ratio/% (MAK(h)) was 45% and the Inhibition ratio/% (Lyn(m)) was 19%.
